According to publication PMC12700101 (2025):

Columns and labels:
Assay in all cases: fluorescence titration (intramolecular strand displacement)
Details in all cases: 6 mM MgCl2; apparent; 10 mM Tris-HCl pH 7.5, 25 °C
[1] = tested on: 25-7 ATP ISD FAM–BHQ-1 (DNA, aptamer) CACCTGGGGGAGTATTGCGGAGGAAGGTTTTTCCAGGTG
[2] = tested on: 25-7 ATP ISD Cy3–Dab (DNA, aptamer, dabcyl-5-methyl-dC at 40 (3' end)) CACCTGGGGGAGTATTGCGGAGGAAGGTTTTTCCAGGTGC
[3] = tested on: 25-7 ATP ISD Cy3–BHQ-1 (DNA, aptamer) CACCTGGGGGAGTATTGCGGAGGAAGGTTTTTCCAGGTG
[4] = tested on: 25-7 ATP ISD FAM–Dab (DNA, aptamer, dabcyl-5-methyl-dC at 40 (3' end)) CACCTGGGGGAGTATTGCGGAGGAAGGTTTTTCCAGGTGC

Compound: Nc1ncnc2c1ncn2[C@@H]1O[C@H](COP(=O)(O)OP(=O)(O)OP(=O)(O)O)[C@@H](O)[C@H]1O
- Kd [1]: 1800 ± 1700 µM
- Kd [2]: 390 ± 83 µM
- Kd [3]: 460 ± 65 µM
- Kd [4]: 1300 ± 600 µM
